Measured values from ChEMBL document CHEMBL4507291 (2021).

Experiments:
[1] = biological target: Muscarinic acetylcholine receptor M2 (Homo sapiens) (UniProt P08172); conditions: Compound concentration 10.0 uM
[2] = biological target: Sodium-dependent noradrenaline transporter (Homo sapiens, UniProt P23975); test: Inhibition of Transporter, Norepinephrine (NET) at compound concentration of 10.0 uM in the Eurofins-Panlabs radioligand binding assay (Eurofins_assay_204410); parameters: ligand concentration 0.2 nM, non-specific ligand with concentration 10 uM Desipramine, incubation time 3 h, incubation temperature 4 C
[3] = biological target: T1, Alpha-2A adrenergic receptor (Homo sapiens) (UniProt P08913); test: Adrenergic alpha2A Eurofins-Panlabs radioligand binding assay; parameters: ligand concentration 1 nM, non-specific ligand with concentration 10 µM WB-4101, incubation time 60 min, incubation temperature 25 °C; conditions: Compound concentration 10.0 uM
T1 sequence (whole entry): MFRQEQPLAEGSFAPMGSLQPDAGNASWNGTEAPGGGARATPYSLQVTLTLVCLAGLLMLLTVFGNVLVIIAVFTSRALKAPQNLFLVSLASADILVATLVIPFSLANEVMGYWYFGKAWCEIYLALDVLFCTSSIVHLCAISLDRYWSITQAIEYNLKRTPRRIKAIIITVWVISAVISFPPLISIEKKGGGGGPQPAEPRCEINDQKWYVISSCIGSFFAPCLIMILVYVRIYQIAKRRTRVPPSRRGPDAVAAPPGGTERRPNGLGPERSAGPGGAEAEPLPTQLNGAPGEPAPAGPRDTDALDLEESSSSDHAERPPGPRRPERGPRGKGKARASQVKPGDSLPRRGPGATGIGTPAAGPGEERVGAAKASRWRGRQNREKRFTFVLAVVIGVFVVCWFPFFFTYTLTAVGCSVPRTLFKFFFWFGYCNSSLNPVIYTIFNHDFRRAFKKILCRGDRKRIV

[4] = biological target: Death-associated protein kinase 1 (Homo sapiens) (UniProt P53355); test: DAPK1 Kinase screen; conditions: Compound concentration 1.0 uM
[5] = biological target: Eukaryotic elongation factor 2 kinase (Homo sapiens) (UniProt O00418); test: EEF2K Kinase screen; conditions: Compound concentration 1.0 uM
[6] = biological target: T2, Ephrin type-B receptor 1 (Homo sapiens) (UniProt P54762); test: EPHB1 Kinase screen; conditions: Compound concentration 1.0 uM
T2 sequence (whole entry): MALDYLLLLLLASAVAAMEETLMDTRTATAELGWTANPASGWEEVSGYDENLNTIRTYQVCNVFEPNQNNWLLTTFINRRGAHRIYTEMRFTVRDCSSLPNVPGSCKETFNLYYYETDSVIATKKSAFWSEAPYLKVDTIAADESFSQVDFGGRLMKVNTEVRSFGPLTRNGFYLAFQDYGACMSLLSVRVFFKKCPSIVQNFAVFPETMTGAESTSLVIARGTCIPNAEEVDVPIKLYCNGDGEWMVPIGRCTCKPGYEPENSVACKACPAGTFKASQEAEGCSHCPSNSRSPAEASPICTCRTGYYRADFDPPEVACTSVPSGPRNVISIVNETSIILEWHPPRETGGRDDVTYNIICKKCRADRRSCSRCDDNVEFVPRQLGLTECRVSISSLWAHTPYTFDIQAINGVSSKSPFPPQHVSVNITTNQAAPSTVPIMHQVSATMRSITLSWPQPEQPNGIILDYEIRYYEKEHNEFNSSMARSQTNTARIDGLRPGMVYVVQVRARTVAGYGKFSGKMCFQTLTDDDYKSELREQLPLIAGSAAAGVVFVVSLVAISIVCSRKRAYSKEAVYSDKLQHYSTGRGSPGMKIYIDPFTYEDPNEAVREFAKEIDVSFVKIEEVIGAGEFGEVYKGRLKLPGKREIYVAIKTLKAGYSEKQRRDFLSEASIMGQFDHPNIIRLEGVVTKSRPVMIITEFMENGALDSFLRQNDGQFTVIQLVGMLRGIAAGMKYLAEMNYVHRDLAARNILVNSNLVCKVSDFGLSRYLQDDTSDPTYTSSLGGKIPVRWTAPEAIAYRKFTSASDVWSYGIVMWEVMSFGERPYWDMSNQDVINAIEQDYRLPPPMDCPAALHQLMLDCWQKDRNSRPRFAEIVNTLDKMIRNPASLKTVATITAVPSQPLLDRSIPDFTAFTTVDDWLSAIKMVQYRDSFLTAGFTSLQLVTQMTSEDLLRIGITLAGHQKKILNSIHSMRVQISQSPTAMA

[7] = biological target: T3, Ephrin type-B receptor 4 (Homo sapiens) (UniProt P54760); test: EPHB4 Kinase screen; conditions: Compound concentration 1.0 uM
T3 sequence (whole entry): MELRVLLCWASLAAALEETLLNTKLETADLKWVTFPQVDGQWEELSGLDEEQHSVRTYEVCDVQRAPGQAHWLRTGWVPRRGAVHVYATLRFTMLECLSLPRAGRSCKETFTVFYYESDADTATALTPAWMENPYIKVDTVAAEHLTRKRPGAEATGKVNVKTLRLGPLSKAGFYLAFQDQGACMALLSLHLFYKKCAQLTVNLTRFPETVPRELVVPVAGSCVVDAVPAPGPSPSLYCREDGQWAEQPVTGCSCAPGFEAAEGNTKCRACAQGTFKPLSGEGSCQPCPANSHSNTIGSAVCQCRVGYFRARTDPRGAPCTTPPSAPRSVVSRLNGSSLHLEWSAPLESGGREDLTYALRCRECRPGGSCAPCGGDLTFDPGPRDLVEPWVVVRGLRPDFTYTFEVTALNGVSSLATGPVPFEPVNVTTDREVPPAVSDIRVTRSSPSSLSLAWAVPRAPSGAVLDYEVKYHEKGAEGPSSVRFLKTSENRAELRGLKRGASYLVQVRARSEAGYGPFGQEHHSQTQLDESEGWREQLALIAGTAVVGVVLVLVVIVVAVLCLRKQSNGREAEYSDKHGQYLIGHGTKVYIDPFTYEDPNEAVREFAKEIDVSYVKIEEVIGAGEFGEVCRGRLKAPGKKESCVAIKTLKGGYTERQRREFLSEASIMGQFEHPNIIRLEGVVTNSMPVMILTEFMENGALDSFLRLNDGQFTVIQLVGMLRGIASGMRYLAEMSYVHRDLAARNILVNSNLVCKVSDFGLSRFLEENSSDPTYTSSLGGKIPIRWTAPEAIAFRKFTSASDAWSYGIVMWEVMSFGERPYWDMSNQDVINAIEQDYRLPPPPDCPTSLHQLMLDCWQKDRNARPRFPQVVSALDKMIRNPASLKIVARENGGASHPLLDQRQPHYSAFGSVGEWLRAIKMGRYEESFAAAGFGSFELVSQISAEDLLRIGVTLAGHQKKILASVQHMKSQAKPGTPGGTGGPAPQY

[8] = biological target: Fibroblast growth factor receptor 4 (Homo sapiens) (UniProt P22455); test: FGFR4 Kinase screen; conditions: Compound concentration 1.0 uM
[9] = biological target: Mitogen-activated protein kinase kinase kinase 11 (Homo sapiens) (UniProt Q16584); test: MAP3K11 (MLK3) Kinase screen; conditions: Compound concentration 1.0 uM
[10] = biological target: NT-3 growth factor receptor (Homo sapiens) (UniProt Q16288); test: NTRK3 (TRKC) Kinase screen; conditions: Compound concentration 1.0 uM
[11] = biological target: Ribosomal protein S6 kinase alpha-4 (Homo sapiens) (UniProt O75676); test: RPS6KA4 (MSK2) Kinase screen; conditions: Compound concentration 1.0 uM
[12] = biological target: 3-phosphoinositide-dependent protein kinase 1 (PDPK1) (Homo sapiens) (UniProt O15530); test: PDK1 Kinase screen; conditions: Compound concentration 1.0 uM
Sequence of 3-phosphoinositide-dependent protein kinase 1 (PDPK1) (Homo sapiens) (O15530 whole entry, looked up): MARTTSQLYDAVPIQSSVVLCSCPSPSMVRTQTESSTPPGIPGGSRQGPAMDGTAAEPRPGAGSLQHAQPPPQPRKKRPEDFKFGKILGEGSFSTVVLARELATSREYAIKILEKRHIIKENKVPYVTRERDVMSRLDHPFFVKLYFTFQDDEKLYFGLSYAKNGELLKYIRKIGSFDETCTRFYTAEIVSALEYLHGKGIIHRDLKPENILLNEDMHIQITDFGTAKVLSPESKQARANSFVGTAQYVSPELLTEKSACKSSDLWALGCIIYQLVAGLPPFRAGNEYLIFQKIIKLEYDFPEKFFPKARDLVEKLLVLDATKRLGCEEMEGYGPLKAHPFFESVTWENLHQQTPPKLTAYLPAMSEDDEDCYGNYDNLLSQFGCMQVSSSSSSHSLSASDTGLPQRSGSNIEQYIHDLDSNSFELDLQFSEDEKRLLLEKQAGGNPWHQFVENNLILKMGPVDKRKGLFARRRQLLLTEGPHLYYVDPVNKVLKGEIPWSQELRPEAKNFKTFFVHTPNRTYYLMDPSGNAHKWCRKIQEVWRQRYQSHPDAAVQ

Sequence of Death-associated protein kinase 1 (Homo sapiens) (P53355 whole entry, looked up): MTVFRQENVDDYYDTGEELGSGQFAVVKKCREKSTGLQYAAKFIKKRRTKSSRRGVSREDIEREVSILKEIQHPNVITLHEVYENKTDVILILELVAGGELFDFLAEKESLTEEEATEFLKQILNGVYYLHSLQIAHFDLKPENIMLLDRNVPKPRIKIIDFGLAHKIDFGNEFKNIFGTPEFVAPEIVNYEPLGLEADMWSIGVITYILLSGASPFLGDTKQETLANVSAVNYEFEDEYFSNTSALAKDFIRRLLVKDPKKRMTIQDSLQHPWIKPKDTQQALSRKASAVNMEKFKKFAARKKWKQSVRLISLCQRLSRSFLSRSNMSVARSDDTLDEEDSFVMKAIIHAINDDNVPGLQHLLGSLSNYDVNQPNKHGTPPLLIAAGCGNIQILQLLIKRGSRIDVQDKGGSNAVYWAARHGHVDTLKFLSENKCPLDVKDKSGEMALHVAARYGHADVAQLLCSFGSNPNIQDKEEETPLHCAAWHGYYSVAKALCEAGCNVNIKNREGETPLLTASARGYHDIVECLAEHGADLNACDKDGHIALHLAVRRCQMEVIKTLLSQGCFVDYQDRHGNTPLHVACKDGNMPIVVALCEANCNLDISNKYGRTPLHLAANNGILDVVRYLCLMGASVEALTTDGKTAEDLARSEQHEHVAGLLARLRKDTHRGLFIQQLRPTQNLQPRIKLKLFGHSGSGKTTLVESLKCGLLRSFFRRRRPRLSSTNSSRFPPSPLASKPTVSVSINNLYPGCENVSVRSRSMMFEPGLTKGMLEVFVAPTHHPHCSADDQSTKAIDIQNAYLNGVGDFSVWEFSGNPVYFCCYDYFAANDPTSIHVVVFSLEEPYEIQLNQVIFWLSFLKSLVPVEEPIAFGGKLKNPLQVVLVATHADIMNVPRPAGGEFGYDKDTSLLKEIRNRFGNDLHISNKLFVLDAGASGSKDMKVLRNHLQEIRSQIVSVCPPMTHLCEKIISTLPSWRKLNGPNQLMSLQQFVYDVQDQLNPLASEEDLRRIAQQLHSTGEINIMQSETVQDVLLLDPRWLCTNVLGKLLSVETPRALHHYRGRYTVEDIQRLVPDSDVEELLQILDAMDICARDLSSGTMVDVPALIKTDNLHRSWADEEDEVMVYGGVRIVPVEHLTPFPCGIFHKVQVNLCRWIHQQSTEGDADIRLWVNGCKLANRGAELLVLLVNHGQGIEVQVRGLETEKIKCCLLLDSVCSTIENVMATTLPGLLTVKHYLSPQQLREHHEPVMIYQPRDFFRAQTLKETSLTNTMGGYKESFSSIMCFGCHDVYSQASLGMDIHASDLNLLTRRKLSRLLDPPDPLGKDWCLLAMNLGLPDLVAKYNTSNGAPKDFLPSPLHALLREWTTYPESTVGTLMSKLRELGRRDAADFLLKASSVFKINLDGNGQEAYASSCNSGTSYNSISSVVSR
Sequence of Muscarinic acetylcholine receptor M2 (Homo sapiens) (P08172 whole entry): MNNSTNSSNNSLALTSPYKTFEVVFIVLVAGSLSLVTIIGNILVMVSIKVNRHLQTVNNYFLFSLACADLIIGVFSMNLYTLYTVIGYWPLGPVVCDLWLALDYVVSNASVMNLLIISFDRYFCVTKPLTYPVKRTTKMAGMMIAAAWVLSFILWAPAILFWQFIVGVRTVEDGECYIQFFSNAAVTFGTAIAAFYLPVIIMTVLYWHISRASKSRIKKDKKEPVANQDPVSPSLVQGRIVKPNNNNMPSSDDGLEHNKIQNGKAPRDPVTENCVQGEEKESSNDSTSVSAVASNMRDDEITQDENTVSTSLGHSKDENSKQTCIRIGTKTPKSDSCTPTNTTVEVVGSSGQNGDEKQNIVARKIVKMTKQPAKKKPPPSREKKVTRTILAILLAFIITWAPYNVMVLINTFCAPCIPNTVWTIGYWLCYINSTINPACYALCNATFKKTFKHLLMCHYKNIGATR
Sequence of Ribosomal protein S6 kinase alpha-4 (Homo sapiens) (O75676 whole entry, looked up): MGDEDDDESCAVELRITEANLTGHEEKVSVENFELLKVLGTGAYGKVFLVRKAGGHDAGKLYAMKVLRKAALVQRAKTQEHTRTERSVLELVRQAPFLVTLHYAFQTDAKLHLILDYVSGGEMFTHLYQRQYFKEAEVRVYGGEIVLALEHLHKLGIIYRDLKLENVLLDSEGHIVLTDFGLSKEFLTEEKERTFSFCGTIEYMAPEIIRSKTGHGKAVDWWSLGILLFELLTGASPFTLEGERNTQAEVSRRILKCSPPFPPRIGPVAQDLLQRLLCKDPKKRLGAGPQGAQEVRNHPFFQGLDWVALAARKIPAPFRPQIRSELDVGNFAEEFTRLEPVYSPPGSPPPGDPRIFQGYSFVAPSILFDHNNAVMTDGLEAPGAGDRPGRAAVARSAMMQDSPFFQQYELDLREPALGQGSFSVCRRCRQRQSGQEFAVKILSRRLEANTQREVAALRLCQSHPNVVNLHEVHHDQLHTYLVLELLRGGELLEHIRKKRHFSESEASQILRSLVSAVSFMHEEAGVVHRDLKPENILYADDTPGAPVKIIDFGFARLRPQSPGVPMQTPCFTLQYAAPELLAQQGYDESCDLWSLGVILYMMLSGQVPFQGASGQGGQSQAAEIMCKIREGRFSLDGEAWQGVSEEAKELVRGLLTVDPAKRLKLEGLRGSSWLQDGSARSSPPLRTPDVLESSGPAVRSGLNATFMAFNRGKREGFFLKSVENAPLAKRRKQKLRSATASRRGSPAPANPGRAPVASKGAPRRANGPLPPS
Sequence of Sodium-dependent noradrenaline transporter (P23975 whole entry): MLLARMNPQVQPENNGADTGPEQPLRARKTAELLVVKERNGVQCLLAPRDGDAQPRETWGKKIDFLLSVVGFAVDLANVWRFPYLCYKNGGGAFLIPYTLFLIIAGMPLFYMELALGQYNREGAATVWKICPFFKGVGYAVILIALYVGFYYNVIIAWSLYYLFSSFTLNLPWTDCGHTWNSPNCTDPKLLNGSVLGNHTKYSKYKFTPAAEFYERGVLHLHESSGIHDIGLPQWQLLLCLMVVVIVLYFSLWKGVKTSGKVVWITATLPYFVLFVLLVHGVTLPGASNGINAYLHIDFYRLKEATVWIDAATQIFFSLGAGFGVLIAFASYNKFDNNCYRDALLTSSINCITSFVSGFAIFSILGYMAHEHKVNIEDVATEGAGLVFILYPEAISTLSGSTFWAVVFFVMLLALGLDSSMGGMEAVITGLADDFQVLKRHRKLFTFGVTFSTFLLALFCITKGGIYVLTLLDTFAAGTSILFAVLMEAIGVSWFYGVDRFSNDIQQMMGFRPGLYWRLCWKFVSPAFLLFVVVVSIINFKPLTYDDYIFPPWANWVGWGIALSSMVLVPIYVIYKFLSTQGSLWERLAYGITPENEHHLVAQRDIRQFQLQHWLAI
Sequence of NT-3 growth factor receptor (Homo sapiens) (Q16288 32-839 limits assumed): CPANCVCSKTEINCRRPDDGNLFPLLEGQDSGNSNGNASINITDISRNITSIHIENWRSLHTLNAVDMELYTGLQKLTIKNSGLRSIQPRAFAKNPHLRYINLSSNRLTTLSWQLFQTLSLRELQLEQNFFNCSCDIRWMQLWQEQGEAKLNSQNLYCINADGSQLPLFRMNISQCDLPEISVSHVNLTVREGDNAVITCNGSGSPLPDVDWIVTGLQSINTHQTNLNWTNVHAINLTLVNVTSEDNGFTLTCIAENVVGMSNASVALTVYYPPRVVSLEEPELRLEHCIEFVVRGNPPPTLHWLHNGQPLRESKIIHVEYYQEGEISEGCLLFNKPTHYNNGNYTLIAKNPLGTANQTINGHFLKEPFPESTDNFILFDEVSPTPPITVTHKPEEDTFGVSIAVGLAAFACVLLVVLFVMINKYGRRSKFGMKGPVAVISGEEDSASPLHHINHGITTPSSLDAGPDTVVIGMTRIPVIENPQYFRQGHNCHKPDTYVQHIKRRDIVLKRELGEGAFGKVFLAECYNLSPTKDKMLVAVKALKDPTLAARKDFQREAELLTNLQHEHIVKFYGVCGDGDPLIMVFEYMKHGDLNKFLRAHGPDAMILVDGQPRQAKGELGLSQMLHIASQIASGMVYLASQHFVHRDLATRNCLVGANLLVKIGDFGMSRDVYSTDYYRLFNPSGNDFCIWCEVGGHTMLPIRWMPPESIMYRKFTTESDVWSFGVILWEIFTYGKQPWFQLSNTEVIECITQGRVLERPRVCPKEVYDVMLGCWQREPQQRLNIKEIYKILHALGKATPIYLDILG

| Structure (SMILES) | inhibition [1] [%] | Ki [2] [µM] | inhibition [3] [%] | inhibition [4] [%] | inhibition [5] [%] | inhibition [6] [%] | inhibition [7] [%] | inhibition [8] [%] | inhibition [9] [%] | inhibition [10] [%] | inhibition [11] [%] | inhibition [12] [%] |
| --- | --- | --- | --- | --- | --- | --- | --- | --- | --- | --- | --- | --- |
| C[C@@H]1CN(c2cc(-c3nn(C)c4ccc(OC5(C)CC5)cc34)ncn2)C[C@H](C)O1 [MLi-2-NC] | 21 | – | – | – | – | – | – | – | – | – | – | – |
| C[C@@H]1CN(c2cc(-c3n[nH]c4ccc(OC5(C)CC5)cc34)ncn2)C[C@H](C)O1 [MLi-2] | – | 3.79 | 6 | -0.645 | 4.28 | 3.46 | 2.23 | 14.8 | -3.69 | 14.9 | 7.68 | 13.6 |
